Test [1] concerns DU145 prostate tumour. The test is described as follows: Inhibition of angiogenesis in primary tumours, intradermal DU145 tumour in nude mice. It counts as in vivo. Conditions: 5 days, vs vehicle. From the text:
(§1) A 1 cm^2 area with the tumour at the centre was examined and the number of blood vessels bifurcations within that area supplying the tumour were counted.

Test [2] concerns LOVO colon tumour. Kind of test: Inhibition of angiogenesis in primary tumours, intradermal LOVO tumour in nude mice. Conditions: 5 days, vs vehicle. It counts as in vivo.
From the text: as §1

In test [3] the test system is ET-1 induced MAPK phosphorylation in MC3T3.E1/J1 cells. Kind of test: Inhibition of ET-1 induced MAPK phosphorylation in osteoblast cell line MC3T3.E1/J1 (western blot, densitometry). It counts as cell-based, mouse. Conditions: Serum Free Media = 100.00. As for the experimental part:
The MC3T3. E1/J1 cell line was isolated from a parental cell line, MC3T3-E1 (available from Invitrogen), which had in turn been derived from newborn C57BL/6 mouse calvaria. The MC3T3 E1/J1 line is described as an osteoblastic line. To initiate the experiments described below, MC3T3.E1/J1 cells were plated at a density of 2.4×10^4 cells/well (24 well plates) in serum containing media and incubated for 48 hours. The cells were washed twice in PBS and re-incubated for approximately 17 hours in serum starvation media.
All media was then removed and the cells lysed and stored at −20° C. for electrophoresis/western blot, which localized phosphorylated MAPK and phosphorylated Akt probing with anti-phospho-p44/42 MAPK (Thr 202/204) and anti-Phospho AKT (Ser 473) antibodies (both commercially available from Cell Signalling Technology). The protein bands were quantitated by densitometry, and plotted as arbitrary densitometry units. Phosphorylated MAPK levels were normalised to total MAPK levels.

Test [4] concerns the target T1, Human recombinant ETB receptor (Homo sapiens, UniProt P24530).
T1 construct: expressed in transfected cells; host or cells: mouse erythroleukaemic (MEL) cells, membrane preparation
T1 sequence (P24530 27-442): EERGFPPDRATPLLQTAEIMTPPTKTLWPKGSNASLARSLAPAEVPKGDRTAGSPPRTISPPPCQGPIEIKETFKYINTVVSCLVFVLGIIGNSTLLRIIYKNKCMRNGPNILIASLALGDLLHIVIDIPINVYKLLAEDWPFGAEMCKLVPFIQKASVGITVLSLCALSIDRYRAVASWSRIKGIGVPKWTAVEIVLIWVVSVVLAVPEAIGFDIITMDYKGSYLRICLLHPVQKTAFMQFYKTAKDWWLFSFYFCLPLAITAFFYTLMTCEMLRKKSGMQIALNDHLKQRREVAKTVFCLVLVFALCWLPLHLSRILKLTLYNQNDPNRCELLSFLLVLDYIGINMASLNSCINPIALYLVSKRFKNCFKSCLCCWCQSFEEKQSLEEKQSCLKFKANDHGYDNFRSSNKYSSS
The test is described as follows: Endothelin human receptor binding assay (125I-ET-1 competition), ETB. Conditions: at a concentration of 10^-4 M, n=3. An excerpt: 1) Endothelin Human Receptor Binding Assay

Test [5] relates to endothelin receptors. Kind of test: Human forearm blood flow, vasoconstriction in response to infused ET-1. The format is in vivo. Conditions: healthy male subjects, single oral doses 10 mg and 30 mg, 2-4 hours post dosing; p=0.0210; evidence of a dose response. From the text: Human forearm blood flow can be assessed by temporarily impeding the venous drainage from the arm by the application of a pneumatic cuff on the upper arm, which is then inflated to just above venous pressure. The resulting arterial flow into the arm with no corresponding venous drainage leads to engorgement and swelling of the forearm, which can be detected with sensitive strain gauges. Infusion of the arterial vasoconstrictor ET-1 into the brachial artery leads to a reduction in forearm distension due to decreased arterial inflow. This vasoconstriction is mediated via endothelin receptors on the vascular endothelium and associated smooth muscle.

Values joined by “and” are separate entries in the source; they are usually repeats but may differ in a detail not shown here. Identical values can stand only once. Where no end group is shown, it is not given here.

For `COc1nc(C)cnc1NS(=O)(=O)c1cccnc1-c1ccc(-c2nnco2)cc1` [Compound (I), N-(3-methoxy-5-methylpyrazin-2-yl)-2-(4-[1,3,4-oxadiazol-2-yl]phenyl)pyridine-3-sulphonamide], the “Inhibition of vessel count” value in test [1] (25 mg/kg once daily p.o.) is 38% (P < 0.001); in test [1] (50 mg/kg once daily p.o.), 30% (P < 0.05); in test [2] (25 mg/kg once daily p.o.) it was 28% (P < 0.001); in test [2] (50 mg/kg once daily p.o., 50 mg/kg) it was 20% (P = 0.001) and 28% (P < 0.001). Besides, the “Phosphorylated MAPK, Average” value is on record as 422.11 arbitrary densitometry units in test [3] (ET-1 100 nm + Compound (I) 0.1 μm, normalised to total MAPK); 157.41 arbitrary densitometry units in test [3] (ET-1 100 nm + Compound (I) 1 μm, normalised to total MAPK); 105.15 arbitrary densitometry units in test [3] (ET-1 100 nm + Compound (I) 10 μm, normalised to total MAPK); 109.18 arbitrary densitometry units in test [3] (ET-1 100 nm + Compound (I) 20 μm, normalised to total MAPK). Moreover, the “mean displacement at the ETB receptor” value in test [4] is 1.2±0.7%. The “forearm blood flow in response to infused ET-1 compared to placebo” value in test [5] was “statistically significant reduction”.

As to “ET-1: endogenous 21 amino acid peptide, endothelin isoform; used as stimulus and radioligand (CSCSSLMDKECVYFCHLDIIW; ends and bridges not checked; cysteine pairing not given here; UniProt P05305 53-73, looked up) [reference compound]”, the “Phosphorylated MAPK, Average” value in test [3] (ET-1 100 nm alone, 3 minutes stimulation) is 312.78 arbitrary densitometry units and 369.85 arbitrary densitometry units.
